Experimental data from the supplement of paper PMC10307832.

Experiments:
Test in all cases: relative viability (nuclei count vs DMSO), 5 days (fraction); higher = more cells survive
Dovitinib + Pictilisib = compound: CN1CCN(c2ccc3nc(-c4c(N)c5c(F)cccc5[nH]c4=O)[nH]c3c2)CC1 [Dovitinib] + CS(=O)(=O)N1CCN(Cc2cc3nc(-c4cccc5[nH]ncc45)nc(N4CCOCC4)c3s2)CC1 [Pictilisib] (partner 1 µM)
In short: (§1)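 Each reported value is a median over duplicate plates. It expresses relative viability: treated-well nuclei count divided by vehicle-well nuclei count. Lung cancer cell lines in 1536-well plates were dosed by pin tool a day after seeding, alone with one drug or with a fixed anchor-drug dose plus five library-drug doses (not always all listed) in √10 steps, and nuclei were counted after 5 days.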

Dovitinib + Linsitinib = compound: CN1CCN(c2ccc3nc(-c4c(N)c5c(F)cccc5[nH]c4=O)[nH]c3c2)CC1 [Dovitinib] + C[C@]1(O)C[C@@H](c2nc(-c3ccc4ccc(-c5ccccc5)nc4c3)c3c(N)nccn32)C1 [Linsitinib] (partner 1 µM)
In short: as §1

Dovitinib + Alpelisib = compound: CN1CCN(c2ccc3nc(-c4c(N)c5c(F)cccc5[nH]c4=O)[nH]c3c2)CC1 [Dovitinib] + Cc1nc(NC(=O)N2CCC[C@H]2C(N)=O)sc1-c1ccnc(C(C)(C)C(F)(F)F)c1 [Alpelisib] (partner 2 µM)
In short: as §1

Dovitinib + Decitabine = compound: CN1CCN(c2ccc3nc(-c4c(N)c5c(F)cccc5[nH]c4=O)[nH]c3c2)CC1 [Dovitinib] + Nc1ncn([C@H]2C[C@H](O)[C@@H](CO)O2)c(=O)n1 [Decitabine] (partner 2 µM)
In short: as §1

Cell Line | relative viability (Dovitinib + Pictilisib; first compound 0.02 µM) | relative viability (Dovitinib + Pictilisib; first compound 0.06325 µM) | relative viability (Dovitinib + Pictilisib; first compound 0.2 µM) | relative viability (Dovitinib + Pictilisib; first compound 0.6325 µM) | relative viability (Dovitinib + Pictilisib; first compound 2 µM) | relative viability (Dovitinib + Linsitinib; first compound 0.02 µM) | relative viability (Dovitinib + Linsitinib; first compound 0.06325 µM) | relative viability (Dovitinib + Linsitinib; first compound 0.2 µM) | relative viability (Dovitinib + Linsitinib; first compound 0.6325 µM) | relative viability (Dovitinib + Linsitinib; first compound 2 µM) | relative viability (Dovitinib + Alpelisib; first compound 0.02 µM) | relative viability (Dovitinib + Alpelisib; first compound 0.06325 µM) | relative viability (Dovitinib + Alpelisib; first compound 0.2 µM) | relative viability (Dovitinib + Alpelisib; first compound 0.6325 µM) | relative viability (Dovitinib + Alpelisib; first compound 2 µM) | relative viability (Dovitinib + Decitabine; first compound 0.02 µM) | relative viability (Dovitinib + Decitabine; first compound 0.06325 µM) | relative viability (Dovitinib + Decitabine; first compound 0.2 µM) | relative viability (Dovitinib + Decitabine; first compound 0.6325 µM) | relative viability (Dovitinib + Decitabine; first compound 2 µM)
NCI-H1944 | 0.325 | 0.332 | 0.335 | 0.33 | 0.36 | 1.14 | 1.18 | 1.15 | 1.22 | 1.18 | 0.822 | 0.846 | 0.809 | 0.777 | 0.858 | 0.388 | 0.374 | 0.455 | 0.454 | 0.434
HARA | 0.372 | 0.259 | 0.367 | 0.398 | 0.417 | 1 | 0.943 | 0.924 | 0.968 | 0.859 | 0.791 | 0.908 | 0.778 | 0.853 | 0.705 | 0.733 | 0.618 | 0.508 | 0.57 | 0.465
NCI-H2126 | 0.476 | 0.462 | 0.463 | 0.559 | 0.504 | 0.697 | 0.691 | 0.748 | 0.747 | 0.696 | 0.761 | 0.72 | 0.716 | 0.769 | 0.695 | 0.605 | 0.573 | 0.676 | 0.556 | 0.599
LXF-289 | 0.716 | 0.801 | 0.842 | 0.862 | 0.783 | 0.907 | 0.942 | 0.935 | 0.939 | 0.878 | 1.01 | 1.02 | 1.02 | 1.03 | 0.926 | 0.438 | 0.402 | 0.391 | 0.372 | 0.359
NCI-H460 | 0.32 | 0.26 | 0.342 | 0.335 | 0.344 | 0.758 | 0.904 | 0.834 | 0.74 | 0.777 | 0.421 | 0.562 | 0.524 | 0.395 | 0.426 | 0.464 | 0.518 | 0.456 | 0.494 | 0.432
NCI-H1395 | 0.563 | 0.518 | 0.651 | 0.783 | 0.612 | 1.05 | 1.29 | 1.24 | 1.06 | 1.12 | 1.07 | 0.988 | 1.11 | 1.09 | 1.12 | 0.719 | 0.668 | 0.747 | 0.713 | 0.696
NCI-H2009 | 0.781 | 0.74 | 0.795 | 0.854 | 0.725 | 1.16 | 1.18 | 1.15 | 1.2 | 1.2 | 1.07 | 1.16 | 1.06 | 1.14 | 1.14 | 0.428 | 0.431 | 0.403 | 0.344 | 0.4
